# Results from patent US7238701B2, “Substituted tetrahydrobenzothienopyrimidinamine compounds useful for treating hyper-proliferative disorders” (Bayer Pharmaceuticals Corporation, priority 2003, dated 2007).
# pIC50: −log10 of the molar value.
# Experiments:
# [1] = tested on: A431cells (human epidermoid carcinoma); test: In vitro tumor cell proliferation assay (Cell Titer-Glo luminescent cell viability), A431 cells; type: cell-based; conditions: A-431, 72 h, 72 hours drug exposure, 10% Fetal Bovine Serum, ATP luminescence readout, read-out: IC50 (50% inhibition of cell proliferation)
# Excerpt: (§1) In vitro Tumor Cell Proliferation Assay
# (§2) The tumor cell proliferation assay used to test the compounds of the present invention involves a readout called Cell Titer-Glow® Luminescent Cell Viability Assay developed by Promega (Cunningham, B A “A Growing Issue: Cell Proliferation Assays, Modern kits ease quantification of cell growth” The Scientist 2001, 15(13), 26, and Crouch, S P et al., “The use of ATP bioluminescence as a measure of cell proliferation and cytotoxicity” Journal of Immunological Methods 1993, 160, 81–88), that measures inhibition of cell proliferation. Generation of a luminescent signal corresponds to the amount of ATP present, which is directly proportional to the number of metabolically active (proliferating) cells.
# (§3) A431cells (human epidermoid carcinoma, ATCC # HTB-20) and BT474 (human breast carcinoma, ATCC # CRL-1555) were plated at a density of 2.5×10^3 cells/well in 96 well black-clear bottom tissue culture plates in RPMI media with 10% Fetal Bovine Serum and incubated at 37° C. Twenty-four hours later, test compounds are added at a final concentration range from as high 100 μM to as low 64 pM depend on the activities of the tested compounds in serial dilutions at a final DMSO concentration of 0.1%. Cells were incubated for 72 hours at 37° C. in complete growth media after addition of the test compound. After 72 hours of drug exposure, the plates were equilibrated to room temperature for approximately 30 min. Then, using a Promega Cell Titer Glo Luminescent® assay kit, lysis buffer containing 100 microliters of the enzyme luciferase and its substrate, luciferin mixture, was added to each well. The plates were mixed for 2 min on orbital shaker to ensure cell lysis and incubated for 10 min at room temperature to stabilize luminescence signal. The samples were read on VICTOR 2 using Luminescence protocol, and analyzed with Analyze5 software to generate IC50 values.
# [2] = tested on: BT474 (human breast carcinoma); test: In vitro tumor cell proliferation assay (Cell Titer-Glo luminescent cell viability), BT474 cells; type: cell-based; conditions: BT-474, 72 hours drug exposure, 10% Fetal Bovine Serum, ATP luminescence readout, read-out: IC50 (50% inhibition of cell proliferation)
# Excerpt: as §1, §2, §3
pIC50 [1],pIC50 [2],SMILES
> 4.30,> 4.30,"CN1CCN(C(=O)CC2CCc3c(sc4ncnc(Nc5cccc(Br)c5)c34)C2)CC1 (stereo not shown) [Example 68, N-(3-bromophenyl)-7-[2-(4-methyl-1-piperazinyl)-2-oxoethyl]-5,6,7,8-tetrahydro[1]benzothieno[2,3-d]pyrimidin-4-amine]"
> 4.30,> 4.30,O=C(CC1CCc2c(sc3ncnc(Nc4cccc(Br)c4)c23)C1)NCCN1CCOCC1 (stereo not shown) [Example 69]
> 5.30,> 4.30,O=C(CC1CCc2c(sc3ncnc(Nc4cccc(Br)c4)c23)C1)N1CCOCC1 (stereo not shown) [Example 70]
> 4.30,> 4.30,"O=C(CC1CCc2c(sc3ncnc(Nc4cccc(Br)c4)c23)C1)N1CCCCC1 (stereo not shown) [Example 71, N-(3-bromophenyl)-7-[2-oxo-2-(1-piperidinyl)ethyl]-5,6,7,8-tetrahydro[1]benzothieno[2,3-d]pyrimidin-4-amine]"
> 5.30,> 4.30,O=C(O)CC1CCc2c(sc3ncnc(Nc4ccc(F)c(Cl)c4)c23)C1 (stereo not shown) [Example 72]
> 5.30,> 5.30,"Fc1ccc(Nc2ncnc3sc4c(c23)CCC(CCN2CCCCC2)C4)cc1Cl (stereo not shown) [Example 73, N-(3-chloro-4-fluorophenyl)-7-[2-(1-piperidinyl)ethyl]-5,6,7,8-tetrahydro[1]benzothieno[2,3-d]pyrimidin-4-amine]"
> 5.30,> 5.30,"Fc1ccc(Nc2ncnc3sc4c(c23)CCC(CCN2CCCC2)C4)cc1Cl (stereo not shown) [Example 74, N-(3-chloro-4-fluorophenyl)-7-[2-(1-pyrrolidinyl)ethyl]-5,6,7,8-tetrahydro[1]benzothieno[2,3-d]pyrimidin-4-amine]"
> 5.30,> 5.30,"COCCNCCC1CCc2c(sc3ncnc(Nc4ccc(F)c(Cl)c4)c23)C1 (stereo not shown) [Example 75, N-(3-chloro-4-fluorophenyl)-7-{2-[(2-methoxyethyl)amino]ethyl}-5,6,7,8-tetrahydro[1]benzothieno[2,3-d]pyrimidin-4-amine]"
> 4.30,> 4.30,"COc1ccc(NCCC2CCc3c(sc4ncnc(Nc5ccc(F)c(Cl)c5)c34)C2)cc1 (stereo not shown) [Example 76, N-(3-chloro-4-fluorophenyl)-7-{2-[(4-methoxyphenyl)amino]ethyl}-5,6,7,8-tetrahydro[1]benzothieno[2,3-d]pyrimidin-4-amine]"
> 5.30,> 5.30,"CS(=O)(=O)CCNC(=O)CC1CCc2c(sc3ncnc(Nc4cccc(Br)c4)c23)C1 (stereo not shown) [Example 77, 2-{4-[(3-bromophenyl)amino]-5,6,7,8-tetrahydro[1]benzothieno[2,3-d]pyrimidin-7-yl}-N-[2-(methylsulfonyl)ethyl]acetamide]"
> 5.30,> 5.30,"Brc1cccc(Nc2ncnc3sc4c(c23)CCC(CCNCCN2CCOCC2)C4)c1 (stereo not shown) [Example 78, N-(3-bromophenyl)-7-(2-{[2-(4-morpholinyl)ethyl]amino}ethyl)-5,6,7,8-tetrahydro[1]benzothieno[2,3-d]pyrimidin-4-amine]"
> 5.30,> 5.30,"Brc1cccc(Nc2ncnc3sc4c(c23)CCC(CCN2CCCCC2)C4)c1 (stereo not shown) [Example 79, N-(3-bromophenyl)-7-[2-(1-piperidinyl)ethyl]-5,6,7,8-tetrahydro[1]benzothieno[2,3-d]pyrimidin-4-amine]"
> 5.30,> 5.30,"CN1CCN(CCC2CCc3c(sc4ncnc(Nc5cccc(Br)c5)c34)C2)CC1 (stereo not shown) [Example 80, N-(3-bromophenyl)-7-[2-(4-methyl-1-piperazinyl)ethyl]-5,6,7,8-tetrahydro[1]benzothieno[2,3-d]pyrimidin-4-amine]"
> 4.30,> 4.30,"O=C(CC1CCc2c(sc3ncnc(Nc4cccc(Br)c4)c23)C1)N1CCCC1 (stereo not shown) [Example 81, N-(3-bromophenyl)-7-[2-oxo-2-(1-pyrrolidinyl)ethyl]-5,6,7,8-tetrahydro[1]benzothieno[2,3-d]pyrimidin-4-amine]"
> 5.30,> 5.30,"COCCNC(=O)CC1CCc2c(sc3ncnc(Nc4cccc(Br)c4)c23)C1 (stereo not shown) [Example 82, 2-{4-[(3-bromophenyl)amino]-5,6,7,8-tetrahydro[1]benzothieno[2,3-d]pyrimidin-7-yl}-N-(2-methoxyethyl)acetamide]"
> 5.30,> 4.30,"COCCN(C)C(=O)CC1CCc2c(sc3ncnc(Nc4cccc(Br)c4)c23)C1 (stereo not shown) [Example 83, 2-{4-[(3-bromophenyl)amino]-5,6,7,8-tetrahydro[1]benzothieno[2,3-d]pyrimidin-7-yl}-N-(2-methoxyethyl)-N-methylacetamide]"
> 5.30,> 5.30,"CS(=O)(=O)CCNCCC1CCc2c(sc3ncnc(Nc4cccc(Br)c4)c23)C1 (stereo not shown) [Example 84, N-(3-bromophenyl)-7-(2-{[2-(methylsulfonyl)ethyl]amino}ethyl)-5,6,7,8-tetrahydro[1]benzothieno[2,3-d]pyrimidin-4-amine]"
> 5.30,> 5.30,"Brc1cccc(Nc2ncnc3sc4c(c23)CCC(CCN2CCCC2)C4)c1 (stereo not shown) [Example 85, N-(3-bromophenyl)-7-[2-(1-pyrrolidinyl)ethyl]-5,6,7,8-tetrahydro[1]benzothieno[2,3-d]pyrimidin-4-amine]"
> 5.30,> 5.30,"COCCNCCC1CCc2c(sc3ncnc(Nc4cccc(Br)c4)c23)C1 (stereo not shown) [Example 86, N-(3-bromophenyl)-7-{2-[(2-methoxyethyl)amino]ethyl}-5,6,7,8-tetrahydro[1]benzothieno[2,3-d]pyrimidin-4-amine]"
> 5.30,> 5.30,"COCCN(C)CCC1CCc2c(sc3ncnc(Nc4cccc(Br)c4)c23)C1 (stereo not shown) [Example 87, N-(3-bromophenyl)-7-{2-[(2-methoxyethyl)(methyl)amino]ethyl}-5,6,7,8-tetrahydro[1]benzothieno[2,3-d]pyrimidin-4-amine]"
> 5.30,> 5.30,"Brc1cccc(Nc2ncnc3sc4c(c23)CCC(CCn2ccnc2)C4)c1 (stereo not shown) [Example 88, N-(3-bromophenyl)-7-[2-(1H-emidazol-1-yl)ethyl]-5,6,7,8-tetrahydro[1]benzothieno[2,3-d]pyrimidin-4-amine]"
> 4.30,> 4.30,"COc1ccc(NCCC2CCc3c(sc4ncnc(Nc5cccc(Br)c5)c34)C2)cc1 (stereo not shown) [Example 89, N-(3-bromophenyl)-7-{2-[(4-methoxyphenyl)amino]ethyl}-5,6,7,8-tetrahydro[1]benzothieno[2,3-d]pyrimidin-4-amine]"
> 4.30,> 4.30,"COCCC1CCc2c(sc3ncnc(Nc4cccc(Br)c4)c23)C1 (stereo not shown) [Example 90, N-(3-bromophenyl)-7-(2-methoxyethyl)-5,6,7,8-tetrahydro[1]benzothieno[2,3-d]pyrimidin-4-amine]"
> 4.30,> 4.30,"COCCN1CCN(C(=O)CC2CCc3c(sc4ncnc(Nc5cccc(Br)c5)c34)C2)CC1 (stereo not shown) [Example 91, N-(3-bromophenyl)-7-{2-[4-(2-methoxyethyl)-1-piperazinyl]-2-oxoethyl}-5,6,7,8-tetrahydro[1]benzothieno[2,3-d]pyrimidin-4-amine]"
> 5.30,> 5.30,"CN(C)[C@@H]1CCN(C(=O)CC2CCc3c(sc4ncnc(Nc5cccc(Br)c5)c34)C2)C1 (stereo partly drawn) [Example 92, N-(3-bromophenyl)-7-{2-[(3R)-3-(dimethylamino)-1-pyrrolidinyl]-2-oxoethyl}-5,6,7,8-tetrahydro[1]benzothieno[2,3-d]pyrimidin-4-amine]"
> 5.30,> 5.30,"COCCN1CCN(CCC2CCc3c(sc4ncnc(Nc5cccc(Br)c5)c34)C2)CC1 (stereo not shown) [Example 93, N-(3-bromophenyl)-7-{2-[4-(2-methoxyethyl)-1-piperazinyl]ethyl}-5,6,7,8-tetrahydro[1]benzothieno[2,3-d]pyrimidin-4-amine]"
> 5.30,> 5.30,"CN(C)[C@@H]1CCN(CCC2CCc3c(sc4ncnc(Nc5cccc(Br)c5)c34)C2)C1 (stereo partly drawn) [Example 94, N-(3-bromophenyl)-7-{2-[(3R)-3-(dimethylamino)-1-pyrrolidinyl]ethyl}-5,6,7,8-tetrahydro[1]benzothieno[2,3-d]pyrimidin-4-amine]"
> 4.30,> 5.30,"CC(C)(O)CC1CCc2c(sc3ncnc(Nc4cccc(Br)c4)c23)C1 (stereo not shown) [Example 95, 1-{4-[(3-bromophenyl)amino]-5,6,7,8-tetrahydro[1]benzothieno[2,3-d]pyrimidin-7-yl}-2-methyl-2-propanol]"
> 5.30,> 5.30,"COCCN(C)CCC1CCc2c(sc3ncnc(Nc4ccc(F)c(Cl)c4)c23)C1 (stereo not shown) [Example 96, N-(3-chloro-4-fluorophenyl)-7-{2-[(2-methoxyethyl)(methyl)amino]ethyl}-5,6,7,8-tetrahydro[1]benzothieno[2,3-d]pyrimidin-4-amine]"
